Data reported in US8530492B2, “Oligomer-protein tyrosine kinase inhibitor conjugates” (Nektar Therapeutics, priority 2009, dated 2013).

System: Caco-2 cells
Test: Caco-2 permeability (bi-directional; pH 7.4/pH 7.4)
Type: in vitro ADME, human
Details: Caco-2, 10 μM, 120 minutes
Protocol: Caco-2 cells are used as an in vitro model of the human intestinal epithelium and permit assessment of the intestinal permeability of potential drugs. Test compound is added to either the apical or basolateral side of a confluent monolayer of Caco-2 cells and permeability is measured by monitoring the appearance of the test compound on the opposite side of the membrane using LC-MS/MS. Apparent permeability (Papp) coefficients, efflux ratio for the test compound and recovery values were determined.
To measure the permeability of test compound in the apical to basolateral (A-B) and basolateral to apical (B-A) direction across Caco-2 cells.
Caco-2 cells obtained from the ATCC are used between passage numbers 40-60. Cells are seeded on to Millipore Multiscreen Caco-2 plates at 1×10^5 cells/cm^2. They are cultured for 20 days in DMEM and media is changed every two or three days. On day 20 the permeability study is performed.
On day 20, the monolayers are prepared by rinsing both basolateral and apical surfaces twice with HBSS at 37° C. Cells are then incubated with HBSS in both apical and basolateral compartments for 40 min to stabilize physiological parameters. HBSS is then removed from the apical compartment and replaced with test compound dosing solutions. […] The fluorescent integrity marker lucifer yellow is also included in the dosing solution. Analytical standards are made from dosing solutions. The apical compartment inserts are then placed into ‘companion’ plates containing fresh HBSS. For basolateral to apical (B-A) permeability determination the experiment is initiated by replacing buffer in the inserts then placing them in companion plates containing dosing solutions. At 120 minutes the companion plate is removed and apical and basolateral samples diluted for analysis by LC-MS/MS. Test compound permeability was assessed in duplicate. On each plate, compounds of known permeability characteristics were run as controls.
Test and control compounds were quantified by LC-MS/MS cassette analysis using a 5-point calibration with appropriate dilution of the samples. Cyprotex generic analytical conditions were used. The starting concentration (C0) and experimental recovery were calculated from both apical and basolateral compartment concentrations.
The integrity of the monolayers throughout the experiment was checked by monitoring lucifer yellow permeation using fluorimetric analysis. Lucifer yellow permeation is low if monolayers have not been damaged. […] If lucifer yellow Papp values are above QC limits in both replicate wells for a test compound, the compound was re-tested.
Data Analysis: The permeability coefficient for each compound (Papp) is calculated from the following equation:
[formula] wherein dQ/dt is the rate of permeation of the drug across the cells, C0 is the donor compartment concentration at time zero and A is the area of the cell monolayer. C0 is obtained from analysis of donor and receiver compartments at the end of the incubation period. It is assumed that all of the test compound measured after 120 minutes incubation was initially present in the donor compartment at 0 minutes. An efflux ratio (ER) is derived as follows:
Talinolol (a known P-gp substrate) is also included as a control compound to assess whether functional P-gp is present in the Caco-2 cell monolayer.

Structure (SMILES) | Permeability (apparent permeability, Papp (A-B))
COCCOCCOCCOCCOCCOCCOCCNCc1ccc(C(=O)Nc2ccc(C)c(Nc3nccc(-c4cccnc4)n3)c2)cc1 | 0.04 ± 0.01 ×10⁻⁶ cm/s
COCCOCCOCCNCc1ccc(C(=O)Nc2ccc(C)c(Nc3nccc(-c4cccnc4)n3)c2)cc1 [mPEG3-N-Imatinib] | 0.6 ± 0.07 ×10⁻⁶ cm/s
COCCOCCOCCN1CCN(Cc2ccc(C(=O)Nc3ccc(C)c(Nc4nccc(-c5cccnc5)n4)c3)cc2)CC1 [mPEG3-N′-Imatinib] | 4 ± 0.8 ×10⁻⁶ cm/s
COCCOCCOCCOCCOCCNCc1ccc(C(=O)Nc2ccc(C)c(Nc3nccc(-c4cccnc4)n3)c2)cc1 [mPEG5-N-Imatinib] | 0.05 ± 0.02 ×10⁻⁶ cm/s
COCCOCCOCCOCCOCCN1CCN(Cc2ccc(C(=O)Nc3ccc(C)c(Nc4nccc(-c5cccnc5)n4)c3)cc2)CC1 [mPEG5-N′-Imatinib] | 1 ± 0.2 ×10⁻⁶ cm/s
COCCOCCOCCOCCOCCOCCOCCN1CCN(Cc2ccc(C(=O)Nc3ccc(C)c(Nc4nccc(-c5cccnc5)n4)c3)cc2)CC1 [mPEG7-N′-Imatinib] | 0.3 ± 0.01 ×10⁻⁶ cm/s
COCCOCCOCCOCCOCCOCCOCCOCCOCCNCc1ccc(C(=O)Nc2ccc(C)c(Nc3nccc(-c4cccnc4)n3)c2)cc1 [mPEG9-N-Imatinib] | 0.01 ± 0.004 ×10⁻⁶ cm/s
COCCOCCOCCOCCOCCOCCOCCOCCOCCN1CCN(Cc2ccc(C(=O)Nc3ccc(C)c(Nc4nccc(-c5cccnc5)n4)c3)cc2)CC1 [mPEG9-N′-Imatinib] | 0.05 ± 0.02 ×10⁻⁶ cm/s
